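Assay format: 96-well plates, 48-hour exposure. Here, GI50 denotes the concentration required for 50% inhibition of growth.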 The source made the active and inactive calls. No stated cut-off is given here; in the data, active = GI50 up to about 1.1 µM and inactive = higher.
Tests used:
Assay in all cases: DTP human tumour cell line panel, 48 h
786-0 = system: 786-0
A498 = system: A498
A549 = system: A549
ACHN = system: ACHN
BT-549 = system: BT-549
CAKI-1 = system: CAKI-1
CCRF-CEM = system: CCRF-CEM
COLO 205 = system: COLO 205
DU-145 = system: DU-145
EKVX = system: EKVX
HCC 2998 = system: HCC 2998
HCT-116 = system: HCT-116
HCT-15 = system: HCT-15
HL-60 = system: HL-60
HOP-62 = system: HOP-62
HOP-92 = system: HOP-92
IGROV-1 = system: IGROV-1
K562 = system: K562
KM12 = system: KM12
LOX IMVI = system: LOX IMVI
M14 = system: M14
MCF7 = system: MCF7
MDA-MB-231 = system: MDA-MB-231
MDA-MB-435 = system: MDA-MB-435
MDA-N = system: MDA-N
MOLT-4 = system: MOLT-4
Malme-3M = system: Malme-3M
NCI-H226 = system: NCI-H226
NCI-H23 = system: NCI-H23
NCI-H460 = system: NCI-H460
NCI-H522 = system: NCI-H522
NCI/ADR-RES = system: NCI/ADR-RES
OVCAR-3 = system: OVCAR-3
OVCAR-4 = system: OVCAR-4
OVCAR-5 = system: OVCAR-5
OVCAR-8 = system: OVCAR-8
PC-3 = system: PC-3
RPMI-8226 = system: RPMI-8226
RXF 393 = system: RXF 393
SF-268 = system: SF-268
SF-295 = system: SF-295
SF-539 = system: SF-539
SK-MEL-28 = system: SK-MEL-28
SK-MEL-2 = system: SK-MEL-2
SK-MEL-5 = system: SK-MEL-5
SK-OV-3 = system: SK-OV-3
SN12C = system: SN12C
SNB-19 = system: SNB-19
SW-620 = system: SW-620
T47D = system: T47D
TK-10 = system: TK-10
U-251 = system: U-251
UACC-257 = system: UACC-257
UACC-62 = system: UACC-62
UO-31 = system: UO-31
HT-29 = system: HT-29
Hs-578T = system: Hs-578T
SNB-75 = system: SNB-75
SR = system: SR

COC(=O)/C=C1/CCC(C)(C(=O)NS(=O)(=O)c2ccc(C)cc2)C1(C)C (centres undefined)
GI50 (786-0): > 100 µM (inactive) | GI50 (A498): > 100 µM (inactive) | GI50 (A549): > 100 µM (inactive) | GI50 (ACHN): > 100 µM (inactive) | GI50 (BT-549): > 100 µM (inactive) | GI50 (CAKI-1): > 100 µM (inactive) | GI50 (CCRF-CEM): > 100 µM (inactive) | GI50 (COLO 205): > 100 µM (inactive) | GI50 (DU-145): > 100 µM (inactive) | GI50 (EKVX): > 100 µM (inactive) | GI50 (HCC 2998): > 100 µM (inactive) | GI50 (HCT-116): > 100 µM (inactive) | GI50 (HCT-15): > 100 µM | GI50 (HL-60): > 100 µM (inactive) | GI50 (HOP-62): > 100 µM (inactive) | GI50 (HOP-92): > 100 µM (inactive) | GI50 (IGROV-1): > 100 µM (inactive) | GI50 (K562): > 100 µM (inactive) | GI50 (KM12): > 100 µM (inactive) | GI50 (LOX IMVI): > 100 µM (inactive) | GI50 (M14): > 100 µM (inactive) | GI50 (MCF7): > 100 µM (inactive) | GI50 (MDA-MB-231): > 100 µM (inactive) | GI50 (MDA-MB-435): > 100 µM (inactive) | GI50 (MDA-N): > 100 µM (inactive) | GI50 (MOLT-4): > 100 µM (inactive) | GI50 (Malme-3M): > 100 µM (inactive) | GI50 (NCI-H226): > 100 µM (inactive) | GI50 (NCI-H23): > 100 µM (inactive) | GI50 (NCI-H460): > 100 µM (inactive) | GI50 (NCI-H522): > 100 µM (inactive) | GI50 (NCI/ADR-RES): > 100 µM (inactive) | GI50 (OVCAR-3): > 100 µM (inactive) | GI50 (OVCAR-4): > 100 µM (inactive) | GI50 (OVCAR-5): > 100 µM (inactive) | GI50 (OVCAR-8): > 100 µM (inactive) | GI50 (PC-3): > 100 µM (inactive) | GI50 (RPMI-8226): > 100 µM (inactive) | GI50 (RXF 393): > 100 µM (inactive) | GI50 (SF-268): > 100 µM (inactive) | GI50 (SF-295): > 100 µM (inactive) | GI50 (SF-539): > 100 µM (inactive) | GI50 (SK-MEL-28): > 100 µM (inactive) | GI50 (SK-MEL-2): > 100 µM (inactive) | GI50 (SK-MEL-5): > 100 µM (inactive) | GI50 (SK-OV-3): > 100 µM (inactive) | GI50 (SN12C): > 100 µM (inactive) | GI50 (SNB-19): > 100 µM (inactive) | GI50 (SW-620): > 100 µM (inactive) | GI50 (T47D): > 100 µM (inactive) | GI50 (TK-10): > 100 µM (inactive) | GI50 (U-251): > 100 µM (inactive) | GI50 (UACC-257): > 100 µM (inactive) | GI50 (UACC-62): > 100 µM (inactive) | GI50 (UO-31): > 100 µM (inactive)

O=[N+]([O-])c1ccc2c(c1)Sc1ccccc1N2CCCCCl
GI50 (786-0): > 100 µM (inactive) | GI50 (A498): > 100 µM (inactive) | GI50 (A549): > 100 µM (inactive) | GI50 (ACHN): > 100 µM (inactive) | GI50 (BT-549): > 100 µM (inactive) | GI50 (CAKI-1): > 100 µM (inactive) | GI50 (CCRF-CEM): > 100 µM (inactive) | GI50 (COLO 205): > 100 µM (inactive) | GI50 (DU-145): > 100 µM (inactive) | GI50 (EKVX): > 100 µM (inactive) | GI50 (HCC 2998): > 100 µM (inactive) | GI50 (HCT-116): > 100 µM (inactive) | GI50 (HCT-15): > 100 µM | GI50 (HL-60): > 100 µM (inactive) | GI50 (HOP-62): > 100 µM (inactive) | GI50 (HOP-92): 24.9 µM (inactive) | GI50 (HT-29): > 100 µM (inactive) | GI50 (Hs-578T): > 100 µM (inactive) | GI50 (IGROV-1): > 100 µM (inactive) | GI50 (K562): 70.6 µM (inactive) | GI50 (KM12): > 100 µM (inactive) | GI50 (LOX IMVI): > 100 µM (inactive) | GI50 (MCF7): > 100 µM (inactive) | GI50 (MDA-MB-231): > 100 µM (inactive) | GI50 (MDA-MB-435): > 100 µM (inactive) | GI50 (MDA-N): > 100 µM (inactive) | GI50 (MOLT-4): 87.9 µM (inactive) | GI50 (Malme-3M): > 10 µM (inactive) | GI50 (NCI-H226): > 100 µM (inactive) | GI50 (NCI-H23): > 100 µM (inactive) | GI50 (NCI-H460): > 100 µM (inactive) | GI50 (NCI-H522): > 100 µM (inactive) | GI50 (NCI/ADR-RES): > 100 µM (inactive) | GI50 (OVCAR-3): > 100 µM (inactive) | GI50 (OVCAR-4): 3.86 µM (inactive) | GI50 (OVCAR-5): > 100 µM (inactive) | GI50 (OVCAR-8): > 100 µM (inactive) | GI50 (PC-3): > 100 µM (inactive) | GI50 (RPMI-8226): > 100 µM (inactive) | GI50 (RXF 393): > 100 µM (inactive) | GI50 (SF-268): > 100 µM (inactive) | GI50 (SF-295): > 100 µM (inactive) | GI50 (SF-539): > 100 µM (inactive) | GI50 (SK-MEL-28): > 100 µM (inactive) | GI50 (SK-MEL-5): > 100 µM (inactive) | GI50 (SN12C): > 100 µM (inactive) | GI50 (SNB-19): > 100 µM (inactive) | GI50 (SNB-75): > 100 µM (inactive) | GI50 (SR): > 100 µM (inactive) | GI50 (SW-620): > 100 µM (inactive) | GI50 (TK-10): > 100 µM (inactive) | GI50 (U-251): > 100 µM (inactive) | GI50 (UACC-257): > 100 µM (inactive) | GI50 (UO-31): > 100 µM (inactive)

— ChEMBL document CHEMBL1201862, “PubChem BioAssay data set” (2004)
